Results on 23 compounds are retold here after US11053218B2, “3-(1-oxoisoindolin-2-yl)piperidine-2,6-dione derivatives and uses thereof” (Novartis AG, priority 2017, dated 2021).

Each structure is given as a SMILES string. Where two headings read alike, the source gives them in different places.

One assay concerns the target IKZF1 (Homo sapiens, UniProt Q13422+Q96SW2). Put plainly: Prolabel quantification of IKZF1 protein levels in 293GT cells. Format: cell-based. The settings on record: Prolabel assay, read-out: IKZF1 EC50. As for the experimental part: (§1) The Prolabel system from DiscoverX was used to develop high-throughput and quantitative assays to measure changes in IKZF1, IKZF2 and GSPT1 protein levels in response to compounds. The prolabel tag was derived from the alpha fragment of beta galactosidase and has the following protein sequence: mssnslavvlqrrdwenpgvtqlnrlaahppfaswrnseeartdrpsqqlrslnge. The complementary fragment of beta-galactosidase (from DiscoverX), is added to the prolabel tag to form an active beta galactosidase enzyme whose activity can be precisely measured. In this way, the levels of a fusion protein with the prolabel tag can be quantified in cell lysates.
(§2) Lentiviral vectors, based on the Invitrogen pLenti6.2/V5 DEST backbone, were constructed that placed the prolabel tag upstream of IKZF1, IKZF2 or GSPT1 and expressed the fusion protein from a CMV promoter.
(§3) To ensure moderate and consistent expression of the prolabel fusion proteins across all cells in the population, stable cell lines were constructed from cells expressing a single copy of the construct. Lentivirus packaged with the constructs was made using the Virapower kit from Invitrogen.
(§4) The levels of prolabel tagged fusion proteins in compound treated cell lines were measured as follows:
(§5) Day 1, Cells were diluted to 1.0×10^6 cells/ml in normal growth medium. 17.5 μL of cells were plated in each well of a solid white 384 well plate. Plates were incubated overnight in a 37° C. tissue culture incubator.
(§6) Day 2, Serial dilutions of compounds were made in 384 well plates from 10 mM stocks. 15 μL of DMSO was added to each well of a 384 well plate. In the first column 15 μL of stock compound was added. The solution was mixed and 15 μL was transferred to the next column. This was repeated until 20 two-fold dilutions were prepared. 2.5 μL of diluted compounds were transferred into 60 μL of cell culture medium in another 384 well plate, and mixed well. 2.5 μL of this mixture was added to the plated cells. The final DMSO concentration was 0.5% and the highest concentration of compound was 50 μM. Plates were incubated overnight (e.g., about 14 h, 18 h, or 24 h) in a 37° C. tissue culture incubator.
(§7) Day 3, Plates were removed from the incubator and allowed to equilibrate at rt for 30 minutes. Prolabel substrate (DiscoverX PathHunter Prolabel Detection Kit, User manual: 93-0180) was added as described by the manufacturers protocols. Plates were incubated at rt for three hours and luminescence was read using an Envision reader (Perkin Elmer) Data was analyzed and visualized using the Spotfire software package.

The next assay has as its target IKZF2 (Homo sapiens, UniProt Q96SW2+Q9UKS7). As to the kind of experiment: Prolabel quantification of IKZF2 protein levels in 293GT cells. Format: cell-based. On the procedure:
as §1, §2, §3, §4, §5, §6, §7

[1] abbreviates: 24 h, 10 μM, 24 h, 293GT cells; read-out: IKZF2 % protein reduction at 10 μM, 24 h.
Setting [2] is: Prolabel assay, 293GT cells; read-out: IKZF2 EC50.
The mark [3] stands for this setting: 10 μM, 24 h, 293GT cells; read-out: IKZF2 % protein reduction at 10 μM, 24 h.

Sequence of IKZF1 (Q13422 whole entry, the tested form may be a part): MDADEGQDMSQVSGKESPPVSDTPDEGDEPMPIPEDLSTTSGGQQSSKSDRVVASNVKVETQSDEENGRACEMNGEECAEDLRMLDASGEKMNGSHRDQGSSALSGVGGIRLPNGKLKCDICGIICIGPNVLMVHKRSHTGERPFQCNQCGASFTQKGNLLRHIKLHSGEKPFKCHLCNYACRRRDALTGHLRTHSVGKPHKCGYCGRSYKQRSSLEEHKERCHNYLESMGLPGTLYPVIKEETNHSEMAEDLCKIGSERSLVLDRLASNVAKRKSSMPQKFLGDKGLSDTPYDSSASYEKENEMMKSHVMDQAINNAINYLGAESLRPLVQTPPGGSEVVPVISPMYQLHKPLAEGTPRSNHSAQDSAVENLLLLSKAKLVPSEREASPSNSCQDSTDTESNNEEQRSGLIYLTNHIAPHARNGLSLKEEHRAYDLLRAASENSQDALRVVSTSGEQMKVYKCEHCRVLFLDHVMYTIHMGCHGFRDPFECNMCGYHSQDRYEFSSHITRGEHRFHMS
Sequence of IKZF1 (Q96SW2 whole entry, the tested form may be a part): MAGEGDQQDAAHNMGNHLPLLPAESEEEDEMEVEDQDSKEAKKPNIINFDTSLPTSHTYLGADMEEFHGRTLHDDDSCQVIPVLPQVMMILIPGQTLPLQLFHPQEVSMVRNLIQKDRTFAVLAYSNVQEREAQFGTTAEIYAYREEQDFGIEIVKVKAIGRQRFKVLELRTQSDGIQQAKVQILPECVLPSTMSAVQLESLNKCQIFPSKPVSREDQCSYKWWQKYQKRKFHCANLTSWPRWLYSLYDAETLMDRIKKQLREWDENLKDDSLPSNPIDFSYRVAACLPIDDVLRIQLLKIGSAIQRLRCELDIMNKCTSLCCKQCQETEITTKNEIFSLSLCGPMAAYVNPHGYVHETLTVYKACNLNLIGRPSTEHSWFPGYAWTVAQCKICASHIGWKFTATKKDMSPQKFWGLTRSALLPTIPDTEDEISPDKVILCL
Sequence of IKZF1 (Q16531 whole entry partner, the tested form may be a part): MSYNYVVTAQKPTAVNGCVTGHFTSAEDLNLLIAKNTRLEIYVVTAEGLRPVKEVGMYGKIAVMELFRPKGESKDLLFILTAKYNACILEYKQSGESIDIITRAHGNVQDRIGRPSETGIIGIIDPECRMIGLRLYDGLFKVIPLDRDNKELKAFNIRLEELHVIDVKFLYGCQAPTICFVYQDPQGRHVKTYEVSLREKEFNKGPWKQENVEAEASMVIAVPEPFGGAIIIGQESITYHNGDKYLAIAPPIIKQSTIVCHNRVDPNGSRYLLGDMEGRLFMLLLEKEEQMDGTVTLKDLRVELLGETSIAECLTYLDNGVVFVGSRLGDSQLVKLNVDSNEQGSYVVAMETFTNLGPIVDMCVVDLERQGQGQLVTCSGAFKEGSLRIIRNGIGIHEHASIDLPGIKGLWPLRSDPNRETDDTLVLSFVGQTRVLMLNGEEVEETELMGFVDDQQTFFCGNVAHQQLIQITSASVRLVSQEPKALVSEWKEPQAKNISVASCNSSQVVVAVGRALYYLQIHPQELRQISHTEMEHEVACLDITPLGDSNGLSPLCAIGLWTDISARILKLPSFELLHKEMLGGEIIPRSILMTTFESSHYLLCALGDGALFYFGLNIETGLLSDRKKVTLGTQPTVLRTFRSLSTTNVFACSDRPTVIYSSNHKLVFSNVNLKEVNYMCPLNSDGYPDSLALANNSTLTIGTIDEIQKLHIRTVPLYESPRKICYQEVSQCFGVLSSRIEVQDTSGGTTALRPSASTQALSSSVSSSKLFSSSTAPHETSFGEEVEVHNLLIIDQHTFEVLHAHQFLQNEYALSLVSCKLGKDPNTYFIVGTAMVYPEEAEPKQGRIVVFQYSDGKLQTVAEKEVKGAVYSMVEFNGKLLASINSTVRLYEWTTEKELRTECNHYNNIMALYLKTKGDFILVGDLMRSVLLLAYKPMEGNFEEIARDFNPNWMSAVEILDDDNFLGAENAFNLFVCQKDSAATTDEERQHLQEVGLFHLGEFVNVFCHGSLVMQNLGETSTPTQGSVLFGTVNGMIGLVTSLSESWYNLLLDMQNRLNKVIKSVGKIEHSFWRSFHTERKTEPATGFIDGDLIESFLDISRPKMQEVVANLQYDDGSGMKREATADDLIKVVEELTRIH
Sequence of IKZF2 (Q9UKS7 whole entry): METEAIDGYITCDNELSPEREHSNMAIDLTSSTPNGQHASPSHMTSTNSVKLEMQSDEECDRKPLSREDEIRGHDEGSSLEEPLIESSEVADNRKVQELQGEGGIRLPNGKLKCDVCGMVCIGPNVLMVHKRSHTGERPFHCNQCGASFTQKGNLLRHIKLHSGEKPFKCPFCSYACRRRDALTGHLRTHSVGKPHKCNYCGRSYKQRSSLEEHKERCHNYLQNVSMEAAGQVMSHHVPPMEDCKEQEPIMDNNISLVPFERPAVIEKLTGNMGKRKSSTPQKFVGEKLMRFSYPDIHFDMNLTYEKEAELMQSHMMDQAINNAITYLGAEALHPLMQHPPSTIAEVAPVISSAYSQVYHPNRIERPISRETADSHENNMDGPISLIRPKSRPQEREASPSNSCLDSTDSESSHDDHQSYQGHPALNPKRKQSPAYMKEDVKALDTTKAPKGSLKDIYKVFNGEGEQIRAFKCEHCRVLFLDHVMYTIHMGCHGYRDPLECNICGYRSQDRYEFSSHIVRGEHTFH
Sequence of IKZF2 (Q96SW2 whole entry): as the sequence (Q96SW2 whole entry, the tested form may be a part) above
Sequence of IKZF2 (Q16531 whole entry partner): as the sequence (Q16531 whole entry partner, the tested form may be a part) above

Regarding `O=C1CCC(N2Cc3cc(C4CCN(Cc5ccccc5C(F)(F)F)CC4)ccc3C2=O)C(=O)N1` (stereo not shown) [Compound I-106, 3-(1-oxo-5-(1-(2-(trifluoromethyl)benzyl)piperidin-4-yl)isoindolin-2-yl)piperidine-2,6-dione], the DC50 at IKZF1 was more than 30000 nM; at IKZF2 (setting [2]), 14 nM. Also, the inhibition at 10 µM on IKZF2 (setting [1]) amounted to 50%.
With `O=C1CCC(N2Cc3cc(C4=CCN(Cc5ccccc5)CC4)ccc3C2=O)C(=O)N1` (stereo not shown) [Compound I-172, 3-(5-(1-benzyl-1,2,3,6-tetrahydropyridin-4-yl)-1-oxoisoindolin-2-yl)piperidine-2,6-dione], the DC50 at IKZF1 was determined as 250 nM; at IKZF2 (setting [2]), 103 nM. Besides, the inhibition at 10 µM at IKZF2 (setting [3]) was determined as 60%.
With `O=C1CCC(N2Cc3cc(C4CCN(Cc5cnc6cnccn56)CC4)ccc3C2=O)C(=O)N1` (stereo not shown) [Compound I-126], the DC50 at IKZF1 is more than 30000 nM; on IKZF2 (setting [2]), 390 nM. Further, the inhibition at 10 µM at IKZF2 (setting [1]) turned out to be 60%.
As for `CC(C)n1nccc1CN1CCC(c2ccc3c(c2)CN(C2CCC(=O)NC2=O)C3=O)CC1` (stereo not shown) [Compound I-289, 3-(5-(1-((1-isopropyl-1H-pyrazol-5-yl)methyl)piperidin-4-yl)-1-oxoisoindolin-2-yl)piperidine-2,6-dione], the DC50 was more than 30000 nM on IKZF1 and 76 nM on IKZF2 (setting [2]). For the same compound, the inhibition at 10 µM on IKZF2 (setting [1]) was 60%.
For `O=C1CCC(N2Cc3cc(C4CCN(Cc5ccns5)CC4)ccc3C2=O)C(=O)N1` (stereo not shown) [Compound I-290, 3-(5-(1-(isothiazol-5-ylmethyl)piperidin-4-yl)-1-oxoisoindolin-2-yl)piperidine-2,6-dione], the DC50 at IKZF1 is more than 30000 nM; on IKZF2 (setting [2]), 490 nM. Moreover, the inhibition at 10 µM on IKZF2 (setting [1]) was determined as 60%.
Consider `Cc1ccc(CN2CCC(c3ccc4c(c3)CN(C3CCC(=O)NC3=O)C4=O)CC2)c(C)c1` (stereo not shown) [Compound I-42, 3-(5-(1-(2,4-dimethylbenzyl)piperidin-4-yl)-1-oxoisoindolin-2-yl)piperidine-2,6-dione], for which the DC50 is more than 30000 nM at IKZF1 and 9 nM at IKZF2 (setting [2]). Further, the inhibition at 10 µM on IKZF2 (setting [1]) worked out at 60%.
For the compound `COCc1ccc(CN2CCC(c3ccc4c(c3)CN(C3CCC(=O)NC3=O)C4=O)CC2)cc1` (stereo not shown) [Compound I-248, 3-(5-(1-(4-(methoxymethyl)benzyl)piperidin-4-yl)-1-oxoisoindolin-2-yl)piperidine-2,6-dione], the DC50 was more than 30000 nM at IKZF1 and 16 nM on IKZF2 (setting [2]). Besides, the inhibition at 10 µM on IKZF2 (setting [1]) turned out to be 70%.
Regarding `O=C1CCC(N2Cc3cc(C4CCN(Cc5cccc(S(=O)(=O)N6CCOCC6)c5)CC4)ccc3C2=O)C(=O)N1` (stereo not shown) [Compound I-236, 3-(5-(1-(3-(morpholinosulfonyl)benzyl)piperidin-4-yl)-1-oxoisoindolin-2-yl)piperidine-2,6-dione], the DC50 at IKZF1 was more than 25000 nM; on IKZF2 (setting [2]), 3 nM. On IKZF2 (setting [1]), the inhibition at 10 µM was determined as 80%. Also, the “IKZF2 protein levels as compared to the control (DMSO)” value at IKZF2 (Prolabel assay in HEK293GT cells, bar graph) was “decreased”.
`CCc1ccc(CN2CCC(c3ccc4c(c3)CN(C3CCC(=O)NC3=O)C4=O)CC2)cc1` (stereo not shown) [Compound I-66, 3-(5-(1-(4-ethylbenzyl)piperidin-4-yl)-1-oxoisoindolin-2-yl)piperidine-2,6-dione]: the DC50 on IKZF1 is more than 30000 nM; at IKZF2 (setting [2]), 9 nM. Moreover, the inhibition at 10 µM on IKZF2 (setting [1]) amounted to 70%.
On to `O=C1CCC(N2Cc3cc(C4CCN(CC5CCOCC5)CC4)ccc3C2=O)C(=O)N1` (stereo not shown) [Compound I-13, 3-(1-oxo-5-(1-((tetrahydro-2H-pyran-4-yl)methyl)piperidin-4-yl)isoindolin-2-yl)piperidine-2,6-dione], for which the DC50 on IKZF1 is more than 30000 nM; on IKZF2 (setting [2]), 29 nM. In addition, the inhibition at 10 µM at IKZF2 (setting [1]) was 60%.
On to `O=C1CCC(N2Cc3cc(C4CCN(Cc5ccc(F)cc5F)CC4)ccc3C2=O)C(=O)N1` (stereo not shown) [Compound I-101, 3-(5-(1-(2,4-difluorobenzyl)piperidin-4-yl)-1-oxoisoindolin-2-yl)piperidine-2,6-dione], for which the DC50 was more than 30000 nM on IKZF1 and 17 nM on IKZF2 (setting [2]). For the same compound, the inhibition at 10 µM at IKZF2 (setting [1]) turned out to be 60%.
In the case of `Cc1cc2nc(CN3CCC(c4ccc5c(c4)CN(C4CCC(=O)NC4=O)C5=O)CC3)cc(O)n2n1` (stereo not shown) [Compound I-208, 3-(5-(1-((7-hydroxy-2-methylpyrazolo[1,5-a]pyrimidin-5-yl)methyl)piperidin-4-yl)-1-oxoisoindolin-2-yl)piperidine-2,6-dione], the values for the DC50 on IKZF1 and on IKZF2 (setting [2]) were more than 30000 nM and 1500 nM, respectively. Besides, the inhibition at 10 µM on IKZF2 (setting [1]) was determined as 60%.
In the case of `O=C1CCC(N2Cc3cc(C4CCN(C(CO)c5ccccc5)CC4)ccc3C2=O)C(=O)N1` (single isomer, unassigned) [Compound I-249], the DC50 at IKZF1 is more than 30000 nM; at IKZF2 (setting [2]), 850 nM. Moreover, on IKZF2 (setting [1]), the inhibition at 10 µM is 40%.
With `O=C1CCC(N2Cc3cc(C4CCN(CCC(F)(F)F)CC4)ccc3C2=O)C(=O)N1` (stereo not shown) [Compound I-179, 3-(1-oxo-5-(1-(3,3,3-trifluoropropyl)piperidin-4-yl)isoindolin-2-yl)piperidine-2,6-dione], the DC50 is more than 30000 nM on IKZF1 and 67 nM at IKZF2 (setting [2]). In addition, the inhibition at 10 µM on IKZF2 (setting [1]) was determined as 40%.
Regarding `CCN1CCC(c2ccc3c(c2)CN(C2CCC(=O)NC2=O)C3=O)CC1` (stereo not shown) [Compound I-1, 3-(5-(1-ethylpiperidin-4-yl)-1-oxoisoindolin-2-yl)piperidine-2,6-dione], the DC50 at IKZF1 is more than 30000 nM; at IKZF2 (setting [2]), 67 nM. For the same compound, on IKZF2 (setting [3]), the inhibition at 10 µM worked out at 60%.
Regarding `O=C1CCC(N2Cc3cc(C4CCN(Cc5ccc(OCc6ccc(F)cc6)cc5)CC4)ccc3C2=O)C(=O)N1` (stereo not shown) [Compound I-244, 3-(5-(1-(4-((4-fluorobenzyl)oxy)benzyl)piperidin-4-yl)-1-oxoisoindolin-2-yl)piperidine-2,6-dione], the DC50 is more than 30000 nM on IKZF1 and 91 nM on IKZF2 (setting [2]). Moreover, the inhibition at 10 µM on IKZF2 (setting [1]) stood at 75%.
Regarding `CCCc1ccc(CN2CCC(c3ccc4c(c3)CN(C3CCC(=O)NC3=O)C4=O)CC2)cc1` (stereo not shown) [Compound I-75, 3-(1-oxo-5-(1-(4-propylbenzyl)piperidin-4-yl)isoindolin-2-yl)piperidine-2,6-dione], the DC50 on IKZF1 was more than 30000 nM; at IKZF2 (setting [2]), 20 nM. Besides, the inhibition at 10 µM at IKZF2 (setting [1]) was found to be 80%.
In the case of `O=C1CCC(N2Cc3cc(C4CCN(Cc5cnc6ncccn56)CC4)ccc3C2=O)C(=O)N1` (stereo not shown) [Compound I-132, 3-(5-(1-(imidazo[1,2-a]pyrimidin-3-ylmethyl)piperidin-4-yl)-1-oxoisoindolin-2-yl)piperidine-2,6-dione], the DC50 on IKZF1 was more than 30000 nM; at IKZF2 (setting [2]), 1080 nM. For the same compound, on IKZF2 (setting [1]), the inhibition at 10 µM is 60%.
Turning to `Cc1cc(CN2CCC(c3ccc4c(c3)CN(C3CCC(=O)NC3=O)C4=O)CC2)on1` (stereo not shown) [Compound I-245, 3-(5-(1-((3-methylisoxazol-5-yl)methyl)piperidin-4-yl)-1-oxoisoindolin-2-yl)piperidine-2,6-dione], the DC50 at IKZF1 was more than 50000 nM; on IKZF2 (setting [2]), 37 nM. Also, the inhibition at 10 µM at IKZF2 (setting [1]) is 40%.
`O=C1CCC(N2Cc3cc(C4CCN(Cc5ccc(CO)cc5)CC4)ccc3C2=O)C(=O)N1` (stereo not shown) [Compound I-32, 3-(5-(1-(4-(hydroxymethyl)benzyl)piperidin-4-yl)-1-oxoisoindolin-2-yl)piperidine-2,6-dione]: the results for the DC50 on IKZF1 and at IKZF2 (setting [2]) were more than 30000 nM and 46 nM, respectively. Further, the inhibition at 10 µM at IKZF2 (setting [1]) was 80%.
As for `C[C@H](c1ccccc1)N1CCC(c2ccc3c(c2)CN(C2CCC(=O)NC2=O)C3=O)CC1` (single isomer, unassigned) [Compound I-247], the DC50 on IKZF1 is more than 30000 nM; on IKZF2 (setting [2]), 17 nM. In addition, the inhibition at 10 µM at IKZF2 (setting [1]) was 70%.
`O=C1CCC(N2Cc3cc(C4CCN(Cc5cccc(C(F)F)c5)CC4)ccc3C2=O)C(=O)N1` (stereo not shown) [Compound I-73, 3-(5-(1-(3-(difluoromethyl)benzyl)piperidin-4-yl)-1-oxoisoindolin-2-yl)piperidine-2,6-dione]: the figures for the DC50 on IKZF1 and at IKZF2 (setting [2]) were more than 30000 nM and 11 nM, respectively. Further, the inhibition at 10 µM on IKZF2 (setting [1]) amounted to 70%.
Take `O=C1CCC(N2Cc3cc(C4=CCCNC4)ccc3C2=O)C(=O)N1` (stereo not shown) [Compound I-282, 3-(1-oxo-5-(1,2,5,6-tetrahydropyridin-3-yl)isoindolin-2-yl)piperidine-2,6-dione]: the DC50 at IKZF1 and at IKZF2 (setting [2]) was more than 30000 nM throughout. Also, the inhibition at 10 µM at IKZF2 (setting [1]) stood at 0%.
